Measured values published in ChEMBL document CHEMBL4190241, “Isolation of Premyrsinane, Myrsinane, and Tigliane Diterpenoids from Euphorbia pithyusa Using a Chikungunya Virus Cell-Based Assay and Analogue Annotation by Molecular Networking” (J Nat Prod, 2017).

Legend:
[1] = Cytotoxicity against African green monkey Vero A cells assessed as reduction in cell viability after 6 to 7 days by MTS assay; format: cell-based; settings: chlorocebus sabaeus
[2] = Selectivity index, ratio of CC50 for African green monkey Vero A cells to EC50 for Chikungunya virus Indian ocean strain 899 infected in African green monkey Vero A cells; format: toxicity; settings: read-out: Ratio CC50/EC50
[3] = test system: Chikungunya virus; assay: Antiviral activity against Chikungunya virus Indian ocean strain 899 infected in African green monkey Vero A cells assessed as reduction in viral-induced cytopathic effect after 6 to 7 days by MTS/PMS assay; format: functional, organism-based; settings: Indian ocean 899, Vero

Row | SMILES | CC50 [1] [µM] | selectivity ratio [2] | EC50 [3] [µM]
1 | CCC(=O)O[C@@H]1[C@@H]2[C@@H](OC(=O)c3ccccc3)[C@]3(COC(C)=O)[C@H](O)C[C@H]4[C@@H]([C@H]3[C@](C)(O)C(=O)[C@@]2(OC(C)=O)C[C@@H]1C)C4(C)C | 63.5 | 5.8 | 11
2 | C=C(C)C1C=C[C@@H](OC(C)=O)[C@@]23CO[C@@](C)([C@H](OC(=O)c4ccccc4)[C@@]4(O)C[C@H](C)[C@H](OC(=O)CC)[C@@H]4[C@H]2OC(C)=O)[C@H]13 (stereo partly specified) | 158 | 1.9 | 84
3 | CCC(=O)O[C@@H]1[C@@H]2[C@@H](OC(=O)c3ccccc3)[C@@]3(COC(C)=O)[C@@H]([C@@H]4[C@H](C[C@H]3OC(C)=O)C4(C)C)[C@](C)(OC(=O)c3cccnc3)C(=O)[C@@]2(O)C[C@@H]1C | > 159 | < 2.4 | > 107
4 | CCC(=O)O[C@@H]1[C@@H]2[C@@H](OC(=O)C(C)CC)[C@@]3(COC(C)=O)[C@@H]([C@@H]4[C@H](C[C@H]3OC(C)=O)C4(C)C)[C@](C)(OC(C)=O)C(=O)[C@@]2(O)C[C@@H]1C (stereo partly specified) | 153 | 2.2 | 107
5 | CCN(CC)CCCC(C)Nc1ccnc2cc(Cl)ccc12 (stereo unspecified) [CHLOROQUINE] | 89 | – | 11
6 | CC(=O)OC[C@]12[C@H](OC(=O)c3ccccc3)[C@H]3[C@@H](OC(C)=O)[C@@H](C)C[C@]3(O)C(=O)[C@@](C)(OC(C)=O)[C@@H]1[C@@H]1[C@H](C[C@H]2OC(C)=O)C1(C)C | 171 | 2.2 | 78
7 | CC(=O)OC[C@]12[C@H](OC(=O)c3ccccc3)[C@H]3[C@@H](OC(C)=O)[C@@H](C)C[C@]3(OC(C)=O)C(=O)[C@@](C)(O)[C@@H]1[C@@H]1[C@H](C[C@H]2OC(C)=O)C1(C)C | – | – | > 152
8 | CCC(=O)O[C@@H]1[C@@H]2[C@@H](OC(=O)c3ccccc3)[C@@]3(COC(C)=O)[C@@H]([C@@H]4[C@H](C[C@H]3OC(C)=O)C4(C)C)[C@](C)(CC(C)=O)C(=O)[C@@]2(O)C[C@@H]1C | – | – | > 144
9 | CCC(C)C(=O)O[C@@H]1[C@H]2[C@@H](OC(C)=O)[C@@H](C)C[C@]2(O)C(=O)[C@@](C)(OC(C)=O)[C@@H]2[C@@H]3[C@H](C[C@@H](OC(C)=O)[C@@]12COC(C)=O)C3(C)C (stereo partly specified) | > 157 | < 5 | > 50
10 | CC(=O)OCC1=C[C@H]2[C@@H]3C(C)(C)[C@]3(OC(=O)C(C)C(C)C)C[C@@H](C)[C@]2(O)[C@@H]2C=C(C)C(=O)[C@@H]2C1 (stereo partly specified) | – | – | > 11
11 | CC(=O)OCC1=C[C@H]2[C@@H]3C(C)(C)[C@]3(OC(=O)C(C)C(C)C)C[C@@H](C)[C@]2(O)[C@@H]2C=C(C)C(=O)[C@H]2C1 (stereo partly specified) | 42.7 | 10.6 | 4
